Data as given in patent US20230192789A1, “STRUCTURALLY-STABILIZED AND HDMX-SELECTIVE P53 PEPTIDES AND USES THEREOF” (Dana-Farber Cancer Institute, Inc., priority 2020, published 2023).
“Also recorded” adds a separate entry of the source. Bridges are numbered along the chain shown (N, C = ends). [ ]: non-standard residue; d: D form. The star is where a group is joined. Biotin = O=C1N[C@H]2[C@H](CS[C@H]2CCCCC(=O)*)N1; R8 = C=CCCCCCC[C@@](C)(N)C(=O)O; S5 = C=CCCC[C@](C)(N)C(=O)O

What was measured:
EOL-1 cancer cells = assay: Cell viability, EOL-1; conditions: EOL-1, 48 and 72 hours of treatment, acetylated stapled peptide
EOL-1 cells = assay: LDH release assay, EOL-1; type: cell-based; conditions: EOL-1, 90 minutes after peptide treatment, highest dosing level
Procedure: (§1) LDH release assay: To assess the release of lactate dehydrogenase (LDH) upon treatment with a structurally-stabilized peptide described herein, an LDH release assay can be used. Cultured cells, including, e.g., cancer cells and HUVEC cells, are plated in 96-well format (2x10^4 cells per well; including overnight incubation for adherent cells) and then treated with serial dilutions of structurally-stabilized peptides in a final volume of 100 µL and incubated at 37° C. for the indicated time period (e.g., 90 minutes). The plates are spun down at 1500 rpm for 5 minutes at 4° C., and 80 µL of cell culture media is transferred to a clear plate (Corning), incubated with 80 µL of LDH reagent (Roche) for 15 minutes while shaking, and absorbance is measured at 490 nm on a microplate reader (SpectraMax M5 Microplate Reader, Molecular Devices).
(§2) LDHRelease Assay: OCI-AML2 cells (1 × 10^4 cells/well) were plated in 96-well plates and treated with the indicated peptides or vehicle (0.2% DMSO). After 1.5 hours incubation at 37° C., 100 µl of cell medium was transferred to a 96-well clear plate and incubated with 100 µl of LDH reagent (Roche) for 25 minutes while shaking, and absorbance at 490 nm measured on a microplate reader (SpectraMax M5 Microplate Reader, Molecular Devices).

OCI-AML2 cells [1] = assay: Cell viability (CellTiter-Glo), OCI-AML2; conditions: OCI-AML2, 48 and 72 hours of treatment, acetylated stapled peptide
OCI-AML2 cells [2] = assay: LDH release assay, OCI-AML2; type: cell-based; conditions: OCI-AML2, 90 minutes after peptide treatment, highest dosing level
Procedure: as §1, §2

[3] = molecular target: T1, recombinant HDMX (amino acids 1-490 of SEQ ID NO:104) (Homo sapiens, UniProt O15151); assay: Competitive streptavidin pull-down of biotinylated peptides with 1:1 recombinant HDM2/HDMX mixture, HDMX western; type: binding; conditions: biotinylated stapled peptide, 1:1 mixture of recombinant HDM2 and HDMX
T1 construct: thioredoxin (N, cleaved yes); S tag (N, cleaved yes); hexahistidine (N, cleaved yes); made in house; host or cells: E. coli (inferred: pET32-LIC vector, handled as described for HDM2 in BL21(DE3))
T1 sequence (O15151 1-490): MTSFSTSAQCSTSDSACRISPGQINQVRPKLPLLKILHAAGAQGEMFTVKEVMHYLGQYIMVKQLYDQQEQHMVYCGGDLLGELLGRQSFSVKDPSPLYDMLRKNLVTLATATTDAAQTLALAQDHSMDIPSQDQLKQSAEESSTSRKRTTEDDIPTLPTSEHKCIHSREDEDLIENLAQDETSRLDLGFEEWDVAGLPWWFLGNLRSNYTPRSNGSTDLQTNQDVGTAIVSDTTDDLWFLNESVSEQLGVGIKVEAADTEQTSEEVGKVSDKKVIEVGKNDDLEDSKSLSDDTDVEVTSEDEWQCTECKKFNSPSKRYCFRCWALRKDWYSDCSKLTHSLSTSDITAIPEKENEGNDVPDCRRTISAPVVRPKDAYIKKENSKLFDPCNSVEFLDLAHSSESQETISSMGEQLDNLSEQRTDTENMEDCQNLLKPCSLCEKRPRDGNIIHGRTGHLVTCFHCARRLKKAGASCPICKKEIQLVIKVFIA

[4] = molecular target: T2, recombinant HDM2 (amino acids 17-125 of SEQ ID NO:103) (human, UniProt Q00987 17-125); assay: streptavidin pull-down of biotinylated peptide with recombinant HDM2 and HDMX (1:1 mixture per paragraph 301), western blot
T2 construct: also called MDM2; not shown: thrombin cleavage site (pET28a vector)
T2 sequence (Q00987 other isoform, or with tags, fused parts or gaps): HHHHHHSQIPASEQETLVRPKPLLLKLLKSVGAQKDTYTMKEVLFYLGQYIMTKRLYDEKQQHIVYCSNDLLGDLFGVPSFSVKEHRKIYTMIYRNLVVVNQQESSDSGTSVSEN

Molecule: COC(=O)CC[C@@H]1NC(=O)[C@H](CCC(N)=O)NC(=O)[C@H](C)NC(=O)[C@H](Cc2c[nH]c3ccccc23)NC(=O)[C@H](Cc2ccc(O)cc2)NC(=O)[C@H](CCC(=O)O)NC(=O)[C@](C)(NC(=O)[C@H](Cc2ccccc2)NC(=O)[C@@H](NC(=O)[C@H](CC(C)C)NC(C)=O)[C@@H](C)O)CCCCCCC=CCCC[C@@](C)(C(=O)N[C@@H](CO)C(=O)N[C@@H](C)C(=O)N[C@@H](C)C(N)=O)NC1=O [ATSP-7041 B26E(OMe), LTF8EYWAQ#XSAA]
- cancer cell cytotoxicity (EOL-1 cancer cells): dose-responsive cancer cell cytotoxicity; also recorded: enhance killing activity
- non-specific membrane disruption (LDH release) (EOL-1 cells): no non-specific membrane disruptive activity
- cancer cell cytotoxicity (OCI-AML2 cells [1]): dose-responsive cancer cell cytotoxicity; also recorded: enhance killing activity
- non-specific membrane disruption (LDH release) (OCI-AML2 cells [2]): no non-specific membrane disruptive activity
- HDMX versus HDM2 binding selectivity [3]: selectivity to HDMX

Molecule: Biotin-QSQQTF[R8]NLWRLE[S5]QN-NH2 (staple 7-14, also called QSQQTF8NLWRLEXQN) [SAH-p53-8 L26E]
- binding result [4]: no binding
